Measurements: US20220062418A1, “TUMOR TARGETING VITAMIN B12 DERIVATIVES FOR X-RAY ACTIVATED CHEMOTHERAPY” (THE TRUSTEES OF DARTMOUTH COLLEGE, priority 2018, published 2022)

Test system: tumor stroma
Test: Losartan effect on stroma and perfusion in two tumor models
Type: in vivo
Conditions: preliminary data
Source text: In an alternative embodiment, we add transcobalamin II to enhance uptake of cobalamin derivatives into tissue. […] Drug delivery is thought to be impeded by the dense stroma of pancreatic adenocarcinoma, and so delivery of cobalamin conjugates could be limited by this issue. […] In an alternative embodiment we treat with Losartan for 10 days prior to cobalamin-drug conjugate treatment to enhance the delivery of this platform to the PDAC tumor stroma.

CCCCc1nc(Cl)c(CO)n1Cc1ccc(-c2ccccc2-c2nn[nH]n2)cc1 [Losartan]
microvessel perfusion: increases in microvessel perfusion
stromal formation: reduce stromal formation
